# In PubChem BioAssay (NCI):
#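 Assay format: 96-well plates, 48-hour exposure. Definition used: TGI = concentration required for complete inhibition of growth.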
# Tests used:
# Test in all cases: inhibition of tumour cell growth, NCI panel, 48 h
# [1] = test system: IGROV1 ovarian
# [2] = test system: M19-MEL melanoma
# [3] = test system: SN12C renal
# [4] = test system: NCI-H522 lung
# [5] = test system: MALME-3M melanoma
# [6] = test system: HCC-2998 colon
# [7] = test system: EKVX NSCLC
# [8] = test system: SR leukemia
# [9] = test system: OVCAR-8 ovarian
# [10] = test system: SF-539 CNS
# [11] = test system: RPMI-8226 leukemia
# [12] = test system: HCT-15 colon
# [13] = test system: SNB-75 CNS
# [14] = test system: UACC-257 melanoma
# [15] = test system: OVCAR-3 ovarian
# [16] = test system: UO-31 renal
# [17] = test system: MOLT-4 leukemia
# [18] = test system: SNB-19 CNS
# [19] = test system: NCI-H23 lung
# [20] = test system: COLO 205 colon
# [21] = test system: HOP-18 NSCLC
# [22] = test system: DLD-1 colon
# [23] = test system: XF 498 CNS
# [24] = test system: HL-60(TB) leukemia
# [25] = test system: SW-620 colon
# [26] = test system: SF-295 CNS
# [27] = test system: KM20L2 colon
# [28] = test system: LOX IMVI melanoma
# [29] = test system: 786-0 renal
# [30] = test system: SNB-78 CNS
# [31] = test system: SK-MEL-28 melanoma
# [32] = test system: SF-268 CNS
# [33] = test system: HCT-116 colon
# [34] = test system: K-562 leukemia
# [35] = test system: CCRF-CEM leukemia
# [36] = test system: DMS 273 small cell lung
# [37] = test system: SK-MEL-2 melanoma
# [38] = test system: SK-MEL-5 melanoma
# [39] = test system: SK-OV-3 ovarian
# [40] = test system: CAKI-1 renal
# [41] = test system: OVCAR-5 ovarian
# [42] = test system: NCI-H460 lung
# [43] = test system: NCI-H226 lung
# [44] = test system: OVCAR-4 ovarian
# [45] = test system: LXFL 529 NSCLC
# [46] = test system: M14 melanoma
# [47] = test system: A549 NSCLC
# [48] = test system: HT29 colon
# [49] = test system: U251 CNS
# [50] = test system: RXF 393 renal
# [51] = test system: KM12 colon
# [52] = test system: A498 renal
# [53] = test system: HOP-92 NSCLC
# [54] = test system: TK-10 renal
# [55] = test system: DMS 114 small cell lung
# [56] = test system: HOP-62 NSCLC
# [57] = test system: UACC-62 melanoma
# [58] = test system: ACHN renal
smiles,measurement,setting,value
O=C1Cc2ccccc2CCc2ccsc21,TGI,[1],> 100 µM
same,TGI,[2],> 100 µM
same,TGI,[3],> 100 µM
same,TGI,[4],> 100 µM
same,TGI,[5],> 100 µM
same,TGI,[6],> 100 µM
same,TGI,[7],> 100 µM
same,TGI,[8],> 100 µM
same,TGI,[9],> 100 µM
same,TGI,[10],> 100 µM
same,TGI,[11],> 100 µM
same,TGI,[12],> 100 µM
same,TGI,[13],> 100 µM
same,TGI,[14],> 100 µM
same,TGI,[15],> 100 µM
same,TGI,[16],> 100 µM
same,TGI,[17],> 100 µM
same,TGI,[18],> 100 µM
same,TGI,[19],> 100 µM
same,TGI,[20],> 100 µM
same,TGI,[21],> 100 µM
same,TGI,[22],> 100 µM
same,TGI,[23],> 100 µM
same,TGI,[24],> 100 µM
same,TGI,[25],> 100 µM
same,TGI,[26],> 100 µM
same,TGI,[27],> 100 µM
same,TGI,[28],> 100 µM
same,TGI,[29],> 100 µM
same,TGI,[30],> 100 µM
same,TGI,[31],> 100 µM
same,TGI,[32],> 100 µM
same,TGI,[33],> 100 µM
same,TGI,[34],> 100 µM
same,TGI,[35],> 100 µM
same,TGI,[36],> 100 µM
same,TGI,[37],> 100 µM
same,TGI,[38],> 100 µM
same,TGI,[39],> 100 µM
same,TGI,[40],> 100 µM
same,TGI,[41],> 100 µM
same,TGI,[42],> 100 µM
same,TGI,[43],> 100 µM
same,TGI,[44],> 100 µM
same,TGI,[45],> 100 µM
same,TGI,[46],> 100 µM
same,TGI,[47],> 100 µM
same,TGI,[48],> 100 µM
same,TGI,[49],> 100 µM
same,TGI,[50],> 100 µM
same,TGI,[51],> 100 µM
same,TGI,[52],> 100 µM
same,TGI,[53],> 100 µM
same,TGI,[54],> 100 µM
CC(=O)O/N=C/c1cc2c(cc1Br)OCO2,TGI,[1],> 349 µM
same,TGI,[2],> 349 µM
same,TGI,[3],> 349 µM
same,TGI,[4],> 349 µM
same,TGI,[5],> 349 µM
same,TGI,[6],> 349 µM
same,TGI,[7],> 349 µM
same,TGI,[8],> 349 µM
same,TGI,[9],> 349 µM
same,TGI,[11],> 349 µM
same,TGI,[12],> 349 µM
same,TGI,[14],> 349 µM
same,TGI,[15],> 349 µM
same,TGI,[17],> 349 µM
same,TGI,[55],> 349 µM
same,TGI,[19],> 349 µM
same,TGI,[20],> 349 µM
same,TGI,[22],> 349 µM
same,TGI,[23],> 349 µM
same,TGI,[24],> 349 µM
same,TGI,[25],> 349 µM
same,TGI,[56],> 349 µM
same,TGI,[26],> 349 µM
same,TGI,[27],> 349 µM
same,TGI,[28],> 349 µM
same,TGI,[29],> 349 µM
same,TGI,[31],> 349 µM
same,TGI,[32],> 349 µM
same,TGI,[34],> 349 µM
same,TGI,[57],> 349 µM
same,TGI,[35],> 349 µM
same,TGI,[36],> 349 µM
same,TGI,[37],> 349 µM
same,TGI,[38],> 349 µM
same,TGI,[39],> 349 µM
same,TGI,[40],> 349 µM
same,TGI,[41],> 349 µM
same,TGI,[42],> 349 µM
same,TGI,[45],> 349 µM
same,TGI,[47],> 349 µM
same,TGI,[48],> 349 µM
same,TGI,[49],> 34.9 µM
same,TGI,[50],> 349 µM
same,TGI,[51],> 349 µM
same,TGI,[58],> 349 µM
same,TGI,[53],> 349 µM
same,TGI,[54],> 349 µM
